{"source": "patent US5639780A", "about": "“N-benzyl indol-3-yl butanoic acid derivatives as cyclooxygenase inhibitors” (priority 1995, dated 1997)", "key": {"[1]": {"target": "T1, cyclooxygenase-1 (human U-937 cells) (Homo sapiens, UniProt P23219)", "T1 construct": "human U-937 cells (which specifically express cyclooxygenase-1); endogenous in cells; host or cells: human U-937 cells", "T1 sequence (P23219 24-599)": "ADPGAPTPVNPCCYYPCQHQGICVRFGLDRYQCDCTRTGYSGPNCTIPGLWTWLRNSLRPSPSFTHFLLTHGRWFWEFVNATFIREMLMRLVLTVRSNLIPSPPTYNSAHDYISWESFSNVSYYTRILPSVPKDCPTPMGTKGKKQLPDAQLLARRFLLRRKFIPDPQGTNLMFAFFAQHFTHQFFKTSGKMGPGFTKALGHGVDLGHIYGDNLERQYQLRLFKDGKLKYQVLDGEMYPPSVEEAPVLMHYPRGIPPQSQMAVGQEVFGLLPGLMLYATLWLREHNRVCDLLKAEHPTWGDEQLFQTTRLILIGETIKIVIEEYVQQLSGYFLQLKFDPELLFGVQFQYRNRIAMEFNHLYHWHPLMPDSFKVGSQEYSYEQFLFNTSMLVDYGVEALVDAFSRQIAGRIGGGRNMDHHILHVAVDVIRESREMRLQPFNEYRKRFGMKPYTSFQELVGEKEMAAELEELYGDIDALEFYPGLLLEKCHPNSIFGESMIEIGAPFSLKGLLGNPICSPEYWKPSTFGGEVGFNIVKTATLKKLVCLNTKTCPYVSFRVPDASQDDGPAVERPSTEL", "assay": "Inhibition of cyclooxygenase-1: PGE2 production in human U-937 cells, whole cell assay", "format": "cell-based", "details": "PGE2 synthesis in response to arachidonic acid, read-out: Cox-1 IC50"}, "[2]": {"system": "rat paw edema", "assay": "Rat Paw Edema Assay (carrageenan), edema inhibition", "format": "in vivo, Male Sprague-Dawley rats", "details": "po 1 hr before carrageenan, paw volume at 3 hr", "protocol": "Rat Paw Edema Assay-Protocol\nMale Sprague-Dawley rats (150-200 g) are fasted overnight and are given po either vehicle (1% methocel or 5% Tween 80) or a test compound. One hr later, a line is drawn using a permanent marker at the level above the ankle in one hind paw to define the area of the paw to be monitored. The paw volume (V0) is measured using a plethysmometer (Ugo-Basile, Italy) based on the principle of water displacement. The animals are then injected subplantarly with […] of 1% carrageenan solution in saline (FMC Corp, Maine) into the paw using an insulin syringe with a 25-gauge needle (i.e., […] carrageenan per paw). Three hr later, the paw volume (V3) is measured and the increases in paw volume (V3 -V0) are calculated. The animals are sacrificed by CO2 asphyxiation and the absence or presence of stomach lesions scored. Data is compared with the vehicle-control values and percent inhibition calculated. All treatment groups are coded to eliminate observer bias."}, "[3]": {"target": "T2, cyclooxygenase-2 (human osteosarcoma 143 cells) (Homo sapiens, UniProt P35354)", "T2 construct": "human osteosarcoma 143 cells (which specifically express cyclooxygenase-2); endogenous in cells; host or cells: human osteosarcoma 143 cells", "T2 sequence (P35354 18-604)": "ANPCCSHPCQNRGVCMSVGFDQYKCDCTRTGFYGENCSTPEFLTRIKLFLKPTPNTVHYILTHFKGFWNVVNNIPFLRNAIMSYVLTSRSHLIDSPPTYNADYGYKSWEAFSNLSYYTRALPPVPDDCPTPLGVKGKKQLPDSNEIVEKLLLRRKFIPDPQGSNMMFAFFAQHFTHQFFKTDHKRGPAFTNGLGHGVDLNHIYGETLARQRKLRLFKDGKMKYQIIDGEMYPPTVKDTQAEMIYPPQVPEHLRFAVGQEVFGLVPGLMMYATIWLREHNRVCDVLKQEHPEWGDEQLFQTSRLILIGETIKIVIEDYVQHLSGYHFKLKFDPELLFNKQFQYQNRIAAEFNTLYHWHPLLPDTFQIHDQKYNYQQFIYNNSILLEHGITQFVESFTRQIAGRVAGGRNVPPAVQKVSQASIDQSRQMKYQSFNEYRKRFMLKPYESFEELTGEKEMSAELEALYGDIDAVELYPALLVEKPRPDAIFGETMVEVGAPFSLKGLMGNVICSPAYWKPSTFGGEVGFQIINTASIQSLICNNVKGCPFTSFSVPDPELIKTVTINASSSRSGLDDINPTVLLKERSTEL", "assay": "Inhibition of cyclooxygenase-2: PGE2 production in human osteosarcoma 143 cells, whole cell assay", "format": "cell-based"}, "[4]": {"details": "human osteosarcoma 143 cells, whole cell, PGE2 synthesis in response to arachidonic acid, read-out: Cox-2 IC50"}}, "note": "Structures can show the parent of a compound that is named as a salt. Where two headings read alike, the source gives them in different places.", "data": [{"smiles": "Cc1c(CC(C)CC(=O)O)c2cc(Cl)ccc2n1Cc1ccc(Br)cc1", "note": "(racemic) [Example 34, 4-[1-(4-Bromobenzyl)-5-chloro-2-methyl-1 H-indol-3-yl]-3-methyl-butanoic acid]", "values": [{"measurement": "IC50", "setting": "[1]", "value": "> 10", "unit": "µM"}, {"measurement": "ED30", "setting": "[2]", "value": 0.51, "unit": "mg/kg"}, {"measurement": "IC50", "setting": "[3]; [4]", "value": 0.005, "unit": "µM"}]}, {"smiles": "COc1ccc2c(c1)c(CC1(CC(=O)O)CC1)c(C)n2Cc1ccc(Br)cc1", "note": "[Example 2, [4-(1-(4-Bromobenzyl) -5-methoxy-2-methyl-1 H-indol-3-yl) -3-(ethane-1,2-diyl)]butanoic acid, sodium salt]", "values": [{"measurement": "IC50", "setting": "[1]", "value": "> 100", "unit": "µM"}, {"measurement": "ED30", "setting": "[2]", "value": 0.54, "unit": "mg/kg"}, {"measurement": "IC50", "setting": "[3]", "value": 0.016, "unit": "µM"}]}, {"smiles": "COc1ccc2c(c1)c(CCCC(=O)O)c(C)n2Cc1ccc(Br)cc1", "note": "[Example 4, 4-(1-(4-Bromobenzyl)-5-methoxy-2-methyl-1H-indol-3-yl)butanoic acid]", "values": [{"measurement": "IC50", "setting": "[1]", "value": "> 10", "unit": "µM"}, {"measurement": "ED30", "setting": "[2]", "value": 1.2, "unit": "mg/kg"}, {"measurement": "IC50", "setting": "[3]; [4]", "value": 0.006, "unit": "µM"}]}, {"smiles": "COc1ccc2c(c1)c(C[C@@H](C)CC(=O)O)c(C)n2Cc1ccc(Br)cc1", "note": "[Example 8, (3R) 4-(1-(4-Bromobenzyl)-5-methoxy-2-methyl-1H-indol-3-yl)-3-methylbutanoic ac id]", "values": [{"measurement": "IC50", "setting": "[1]", "value": "> 10", "unit": "µM"}, {"measurement": "ED30", "setting": "[2]", "value": 0.6, "unit": "mg/kg"}]}, {"smiles": "Cc1c(CCCC(=O)O)c2cc(Br)ccc2n1Cc1ccc(Br)cc1", "note": "[Example 24, 4-[5-Bromo-1-(4-bromobenzyl)-2-methyl-1H-indol-3-yl]butanoic acid]", "values": [{"measurement": "IC50", "setting": "[1]", "value": "> 50", "unit": "µM"}, {"measurement": "ED30", "setting": "[2]", "value": "~3", "unit": "mg/kg"}, {"measurement": "IC50", "setting": "[3]; [4]", "value": 0.006, "unit": "µM"}]}, {"smiles": "COc1ccc2c(c1)c(CC1(CC(=O)O)CC1)c(C)n2Cc1ccc(Cl)cc1", "note": "[Example 25, 4-[1-(4-Chlorobenzyl)-5-methoxy-2-methyl-1H-indol-3-yl]-3-(ethane-1,2-diyl)butanoic acid]", "values": [{"measurement": "IC50", "setting": "[1]", "value": "> 25", "unit": "µM"}, {"measurement": "ED30", "setting": "[2]", "value": "> 3", "unit": "mg/kg"}, {"measurement": "IC50", "setting": "[3]; [4]", "value": 0.009, "unit": "µM"}]}, {"smiles": "COc1ccc2c(c1)c(CC(=O)O)c(C)n2C(=O)c1ccc(Cl)cc1", "note": "[Indomethacin, reference compound]", "values": [{"measurement": "ED30", "setting": "[2]", "value": 0.9, "unit": "mg/kg"}]}, {"smiles": "COc1ccc2c(c1)c(C(C)C(=O)O)c(C)n2Cc1ccc(Cl)cc1", "note": "(stereo not shown) [MK-555, a-(1-p-chlorobenzyl-2-methyl-5-methoxy-3-indolyl)propionic acid, reference compound]", "values": [{"measurement": "ED30", "setting": "[2]", "value": 3, "unit": "mg/kg"}]}]}
